{"source": "patent US7704502B2", "about": "“Combinations of antibodies selective for DR5 and other therapeutic agents” (The UAB Research Foundation, priority 2000, dated 2010)", "key": {"PC-3 cells": {"test_system": "PC-3 cells", "test": "Combination study of TRA-8 with Paclitaxel (XTT)", "format": "cell-based, human", "conditions": "Paclitaxel alone, concentrations of up to 200 nM", "procedure": "Human prostate cancer cell line PC-3 is obtained from American Tissue Culture Collection (ATCC) and maintained in F-12K Nutrient Mixture (21127-022, Gibco BRL) containing 10% fetal bovine serum (FBS, Hyclone), 1% L-Glutamine-200 mM (25030-149, Gibco BRL) and 0.5% Penicillin Streptomycin Solution (P-7539, Sigma). RPMI1640 medium (MED-008, IWAKI) supplemented with 10% FBS and 0.5% Penicillin Streptomycin Solution is used in the following experiment. Exponentially growing PC-3 cells are collected by trypsinization and washed twice with fresh medium. The cells are then counted, resuspended in fresh medium at a density of 5×10^4 cells/ml and distributed in triplicate into flat-bottomed 96 well plates (3598, Corning-Coster) in a total volume of 100 μl/well one day before the start of the experiment. A representative anti-cancer drug, Paclitaxel (169-18611, Wako) dissolved in dimethylsulfoxide (10 mg/ml) is diluted in fresh medium and then added to the 96-well plates containing the cells at 50 μl/well. The final concentrations of dimethylsulfoxide are less than 0.1%. […] After incubation for a further 24 hr, 50 μl of Minimum Essential Medium (11095-098, Gibco BRL) containing 1 mg/ml of XTT and […] of PMS is added to the wells and the plates are incubated for 6 hr. OD450 is then measured by SPECTRA MAX 250 (Molecular Devices) and the cell viability is calculated as follows."}, "[1]": {"test_system": "2LMP human breast cancer xenografts", "test": "TRA-8 therapy alone or with chemotherapy or radiation, breast cancer xenografts", "format": "in vivo, athymic nude mice", "conditions": "aggregate of 6 experiments", "procedure": "Athymic nude mice were injected s.c. with 3×10^7 2LMP cells. […] The growth of tumors was monitored over time. […] Tumor size and regression rates were determined.\nData from 6 independent experiments were analyzed by individual experiment. Treatment combinations were compared with respect to in vivo anti-tumor efficacy, i.e., inhibition of tumor growth, which was measured as three endpoints; extension of tumor doubling times, percentage of tumor regressions, and growth rates over time. The actual number of days at which the tumor doubled in surface area (product of two diameters) relative to baseline on day 7 after tumor cell injection was used in the doubling time analysis. The nonparametric Kruskal-Wallis test was used for median tumor doubling time comparisons between treatments. Fisher's exact test was used to compare the proportions of tumor regressions and relapse-free regressions across treatment groups. To determine if any combination therapy produced significant synergistic inhibition of tumor growth, i.e., more than additive, the growth curves from the serial area measurements were compared using a linear mixed model approach over the first 3 weeks after start of therapy (Lindsey, J. K. Models for Repeated Measurements, pp. 100-142, Oxford, 1993). To test for synergistic effects of the combination therapies, an interaction term was included in the model. If the interaction term was significant and the effect was inhibition of growth at a rate greater than additive then the interaction was considered synergistic.\nA total of 166 animals, 10 treatment groups, and 6 independent experiments were included in the aggregate analysis. Treatment combinations were compared with respect to in vivo anti-tumor efficacy. The median tumor doubling times were analyzed using the Kruskal-Wallis test and Fisher's exact test was used to compare the proportions of tumor regressions and relapse-free regressions across treatment groups."}, "2LMP xenografts": {"test_system": "2LMP xenografts", "test": "Analysis of apoptosis in xenografts (TUNEL)", "format": "in vivo, athymic nude mice", "conditions": "day 14", "procedure": "One group of mice was untreated. The xenografts were dissected for the study of apoptosis on day 14 after tumor cell injection. The reason for the substantial reduction in treatment intensity compared to our standard treatment protocol was to allow adequate tumor tissue for analysis on day 14. Tunel assay for apoptosis in tumor xenografts was performed as follows. Five-micron paraffin sections of tissue were mounted on Superfrost/Plus slides and heated at 58° C. for 1 h. Tissue sections were deparaffinized in three changes of xylene and rehydrated with one change of absolute ethanol, 95% ethanol, and 70% ethanol, each in 5-min increments. Then, the sections were placed in Tris-buffered saline (0.5M Tris base, 0.15 M NaCl, 0.0002% Triton X-100™, pH 7.6). Apoptotic nuclei were detected using an Apop Tag Peroxidase kit (Intergen, Purchase, N.Y.). Proteinase K (20 μg/ml in distilled deionized H2O) was added to the tissue specimens and incubated at room temperature for 15 min. Endogenous peroxidases were quenched with an aqueous solution of 3% hydrogen peroxide for 5 min. Sections were treated with an equilibration buffer for 30 min and then incubated with the TdT/enzyme (diluted in labeling reaction mix) for 1 h at 37° C. using parafilm covers. During this incubation, the TdT enzyme binds the 3′-OH ends of DNA fragments and catalyzes the addition of digoxigenin-labeled and unlabeled deoxynucleotides. Negative controls were incubated with distilled H2O (diluted in labeling reaction mix) instead of the TdT enzyme. A stop buffer was added for 10 min at room temperature to terminate the labeling reaction. An anti-digoxigenin conjugate was added to each slide for 30 min. The chromagen 3,3′ DAB was used to visualize the labeled 3′ OH end of DNA fragments. The slides were then rinsed in deionized water and lightly counterstained with hematoxylin, dehydrated using graded alcohols and xylene and coverlsipped using Permount. Approximately 10 random fields were evaluated for percentage of Tunel stained and percentage of intensely stained apoptotic bodies throughout the tissue."}, "CLL B cells": {"test_system": "CLL B cells", "test": "Apoptosis/cytotoxicity in CLL B cells in vitro", "format": "cell-based, human"}, "Jurkat cells": {"test_system": "Jurkat cells", "test": "Apoptosis-inducing activity of humanized antibody (XTT, 12 hours)", "format": "cell-based, human", "conditions": "serial 2-fold dilutions from 100 ng/ml", "procedure": "Jurkat cells cultured in RPMI1640 medium with 10% FCS (Gibco BRL) at 37° C. for 3 days in the presence of 5% CO2 are dispensed into each well of a 96-well microplate (Sumitomo Bakelite) at 50 μl per well. […] Each of the solutions of the expression products thus adjusted to 100 ng/ml is used to produce serial dilutions by repeating serial 2-fold dilution with RPM11640 containing 10% FCS. […] After reacting at 37° C. for 12 hours, 50 μl of 25 μM PMS (phenazine methosulfate; Sigma Chemical Co.) containing 1 mg/ml XTT (2,3-bis[2-methoxy-4-nitro-5-sulfophenyl]-2H-tetrazolium-5-carboxyaniride inner salt; Sigma Chemical Co.) is added (final concentrations of 250 μg/ml for XTT and 5 μM for PMS). After incubating for 3 hours, the absorbance at 450 nm of each well is measured to calculate the cell viability by using the reduction ability of mitochondria as the index.\nThe viability of the cells in each well is calculated according to the following formula: Viability(%)=100×(a−b)/(c−b) wherein “a” is the measurement of a test well, “b” is the measurement of a well with no cells, and “c” is the measurement of a well with no antibody added."}}, "data": [{"molecule": "CC(=O)O[C@H]1C(=O)[C@@]2(C)[C@H]([C@H](OC(=O)c3ccccc3)[C@]3(O)C[C@H](OC(=O)[C@H](O)[C@@H](NC(=O)c4ccccc4)c4ccccc4)C(C)=C1C3(C)C)[C@]1(OC(C)=O)CO[C@@H]1C[C@@H]2O", "note": "[Paclitaxel]", "values": [{"measurement": "cell viability remaining", "setting": "PC-3 cells", "value": "more than 40%"}, {"measurement": "Complete Regressions No relapse (%)", "setting": "[1]; number of animals (%)", "value": 0}, {"measurement": "Complete Regressions Total (%)", "setting": "[1]; number of animals (%)", "value": 0}, {"measurement": "Tumor Doubling Time (mean)", "setting": "[1]; relative to day 7", "value": 25, "unit": "days"}, {"measurement": "Tumor Doubling Time (median)", "setting": "[1]; relative to day 7", "value": 20, "unit": "days"}, {"measurement": "TUNEL stained cells", "setting": "2LMP xenografts; 100 μg TRA-8 days 7, 10, adriamycin 3 mg/kg or paclitaxel 10 mg/kg days 8, 11, untreated 4%", "value": 7, "unit": "%"}, {"measurement": "intensely stained cells", "setting": "2LMP xenografts; same regimen, untreated 1%", "value": 2, "unit": "%"}]}, {"molecule": "Cn1cc(C2=C(c3cn(CCCN)c4ccccc34)C(=O)NC2=O)c2ccccc21", "note": "[BisVIII, Bisindolylmaleimide VIII]", "values": [{"measurement": "sensitivity to induced cytotoxicity", "setting": "CLL B cells", "value": "sensitive"}]}, {"molecule": "humanized TRA-8: humanized TRA-8 of Example 20, cotransfection of pHB14-1 and pSR/M2-1 (H2 heavy, LM2 light chain) (antibody) VH: EVMLVESGGGLVQPGGSLRLSCAASGFTFSSYVMSWVRQAPGKGLEWVATISSGGSYTYYPDSVKGRFTISRDNAKNTLYLQMNSLRAEDTAVYYCARRGDSMITTDYWGQGTLVTVSS light: DIVMTQSPSSLSASVGDRVTITCKASQDVGTAVAWYQQKPGKAPKLLIYWASTRHTGVPSRFSGSGSGTDFTLTISSLQPEDFATYYCQQYSSYRTFGQGTKVEIKRTVAAPSVFIFPPSDEQLKSGTASVVCLLNNFYPREAKVQWKVDNALQSGNSQESVTEQDSKDSTYSLSSTLTLSKADYEKHKVYACEVTHQGLSSPVTKSFNRGEC", "values": [{"measurement": "induction of apoptosis", "setting": "Jurkat cells", "value": "induce apoptosis"}]}]}
